The values below come from patent publication US12622965B2, “Therapeutical tools and methods using temperature-sensitive receptors for treating blindness” (FRIEDRICH MIESCHER INSTITUTE FOR BIOMEDICAL RESEARCH, priority 2020, dated 2026).

For this assay, the system named is HEK cells expressing TRPV1.459-6x-His, TRPV1.465-6x-His or untagged TRPV1. The assay is described as follows: whole cell voltage clamp in HEK cells expressing TRPV1 variants, activated by capsaicin. In kind it is cell-based. The following applies: TRPV1 agonist capsaicin 2.5 μM bath applied; voltage clamp −60 mV; mean±s.e.m. From the text:
First, they developed a system based on rat TRPV1 channels and gold nanorods with absorption maxima at 915 nm. 915 nm was selected to ensure low water absorption. […] To measure if tagged channels are functional, they performed whole cell voltage clamp in HEK cells expressing TRPV1.459-6x-His, TRPV1.465-6x-His or untagged TRPV1 while activating the channels by TRPV1 agonist capsaicin. The size of evoked currents were similar between TRPV1.465-6x-His and TRPV1 (Mann-Whitney U test, P=0.8551; TRPV1.465-6x-His, 1633±164 pA, […] 15 cells; TRPV1, 1766±276 pA, n=14 cells; mean±s.e.m), but less in TRPV1.459-6x-His (Mann-Whitney U test, P=0.0207; TRPV1.459-6x-His, 976±118 pA, n=19 cells; mean±s.e.m). Therefore, they used TRPV1.465-6x-His (rTRPV1) in subsequent experiments.
For HEK293T cell experiments, cells were maintained at 37° C. on poly-D-lysine/laminin coated coverslips (GG-12-Laminin, Neuvitro) in DMEM supplemented with 10% fetal bovine serum. Cells were transfected with plasmids containing TRP variants using branched PEI. Cells were perfused in oxygenated Ringer's medium containing 110 mM NaCl, 2.5 mM KCl, 1 mM CaCl2, 1.6 mM MgCl2, 10 mM D-glucose and 22 mM NaHCO3 at ˜36° C. for the duration of the experiment. […] Data was analyzed offline using MATLAB (MathWorks).

Turning to “TRPV1: untagged rat TRPV1 channel [reference compound]”, the “size of evoked currents” value came to 1766±276 pA.
